Measurements: the NIST ThermoML archive (doi:10.1016/j.jct.2012.11.004)

Experiment: mn = molality of the nth substance listed, in mol/kg
Conditions: 101 kPa, Liquid; for mass density: Vibrating tube method; for speed of sound: Pulse-echo method

O=S(=O)([O-])C(F)(F)F.O=S(=O)([O-])C(F)(F)F.O=S(=O)([O-])C(F)(F)F.[Lu+3] [lutetium(III) trifluoromethanesulfonate] + CN(C)C=O
Conditions	mass density, 283.15 K [kg/m3]	mass density, 293.15 K [kg/m3]	mass density, 298.15 K [kg/m3]	mass density, 303.15 K [kg/m3]	mass density, 313.15 K [kg/m3]	mass density, 323.15 K [kg/m3]	mass density, 333.15 K [kg/m3]	speed of sound, 298.15 K [m/s]
m1 = 0.02151	967.66	958.14	953.37	948.59	939.01	929.39	919.7	1455.4
m1 = 0.02883	970.96	961.44	956.67	951.89	942.3	932.66	922.98	1454.7
m1 = 0.03776	975	965.46	960.69	955.91	946.32	936.69	927	1454
m1 = 0.04886	980.05	970.51	965.73	960.95	951.35	941.71	932.02	1452.9
m1 = 0.0599	985.11	975.57	970.79	966.01	956.39	946.76	937.05	1451.8
m1 = 0.07513	992.17	982.63	977.84	973.05	963.43	953.77	944.07	1450.5
m1 = 0.09644	1002.19	992.62	987.83	983.03	973.4	963.72	954	1448
m1 = 0.1156	1011.35	1001.77	996.97	992.16	982.52	972.84	963.09	1445.9
m1 = 0.1337	1020.13	1010.53	1005.72	1000.91	991.25	981.57	971.83	1444.2
m1 = 0.1557	1031	1021.38	1016.56	1011.75	1002.08	992.37	982.6	1441.8
m1 = 0.1744	1040.3	1030.66	1025.84	1021.02	1011.33	1001.62	991.84	1439.7

O=S(=O)([O-])C(F)(F)F.[Na+] [sodium trifluoromethanesulfonate] + CC(=O)N(C)C
Conditions	mass density, 283.15 K [kg/m3]	mass density, 293.15 K [kg/m3]	mass density, 298.15 K [kg/m3]	mass density, 303.15 K [kg/m3]	mass density, 313.15 K [kg/m3]	mass density, 323.15 K [kg/m3]	mass density, 333.15 K [kg/m3]	speed of sound, 298.15 K [m/s]
m1 = 0.03102	953.06	943.85	939.25	934.64	925.39	916.13	906.83	–
m1 = 0.04251	954.18	944.96	940.36	935.76	926.52	917.26	907.96	–
m1 = 0.05604	955.5	946.28	941.68	937.08	927.84	918.59	909.29	1456
m1 = 0.07266	957.11	947.9	943.3	938.69	929.46	920.21	910.92	1455.8
m1 = 0.08844	958.64	949.43	944.83	940.23	931	921.75	912.46	1455.7
m1 = 0.1113	960.86	951.66	947.06	942.45	933.22	923.98	914.7	1455.5
m1 = 0.1446	964.1	954.89	950.29	945.68	936.46	927.21	917.94	1455.2
m1 = 0.174	966.97	957.75	953.15	948.54	939.35	930.09	920.85	1455
m1 = 0.2018	969.69	960.49	955.89	951.28	942.06	932.83	923.57	1454.7
m1 = 0.2378	973.2	964	959.39	954.79	945.58	936.36	927.11	1454.3
m1 = 0.2675	976.18	966.97	962.37	957.77	948.55	939.32	930.07	1453.9

O=S(=O)([O-])C(F)(F)F.[Na+] [sodium trifluoromethanesulfonate] + CN(C)C=O
Conditions	mass density, 283.15 K [kg/m3]	mass density, 293.15 K [kg/m3]	mass density, 298.15 K [kg/m3]	mass density, 303.15 K [kg/m3]	mass density, 313.15 K [kg/m3]	mass density, 323.15 K [kg/m3]	mass density, 333.15 K [kg/m3]	speed of sound, 298.15 K [m/s]
m1 = 0.03242	961.31	951.8	947.04	942.26	932.69	923.07	913.39	–
m1 = 0.04301	962.37	952.86	948.1	943.33	933.75	924.13	914.46	–
m1 = 0.05649	963.72	954.21	949.44	944.67	935.1	925.48	915.81	–
m1 = 0.07002	965.07	955.56	950.8	946.03	936.46	926.83	917.16	1456.8
m1 = 0.08981	967.04	957.54	952.77	948	938.43	928.81	919.14	1456.7
m1 = 0.1114	969.21	959.69	954.93	950.16	940.6	930.98	921.31	1456.6
m1 = 0.1445	972.54	963.02	958.25	953.48	943.91	934.29	924.63	1456.4
m1 = 0.1748	975.61	966.08	961.32	956.54	946.97	937.35	927.69	1456.2
m1 = 0.2026	978.41	968.91	964.12	959.34	949.76	940.13	930.5	1456.1
m1 = 0.239	982.12	972.58	967.82	963.03	953.44	943.82	934.15	1455.9
m1 = 0.2681	985.09	975.55	970.79	966.01	956.41	946.79	937.1	1455.7
